Laboratory results: US7919475B2, “Compositions and methods for improving heart function” (The Regents of The University of California, priority 2004, dated 2011)

System: cellular protein O-GlcNAcylation in STZ-induced diabetic hearts
Test: Cellular protein O-GlcNAcylation in diabetic mouse hearts by Western blot
Format: in vivo
Settings: STZ-induced diabetic mice, insulin 50 units/g per day subcutaneously for 2 weeks
Excerpt: To rule out any potentially toxic effects of STZ on the heart, several STZ-injected mice were intensively treated with Ultralente human insulin (Eli Lilly and Company, IN) with 50 units/g per day subcutaneously. The insulin treatment commenced on the third day after STZ injection and lasted for 2 weeks. The cellular O-GlcNAcylation in these hearts was compared with that of the non-insulin treated diabetic hearts. In addition, several 20 weeks old male polygenic diabetic NONcNZO10/LtJ mice (The Jackson Laboratory) (see, e.g., Reifsnyder (2002) Diabetes 51:825-832; Leiter (2004) Diabetes 53 Suppl 1:S4-11) were used as a type II diabetic model to investigate the excess O-GlcNAcyaltion level in the diabetic heart independent of STZ administration. These mice developed hyperglycemia at 12-16 weeks. At the sacrifice time, blood glucose levels were above 33.3 mmol/L. Animal procedures were performed in accordance with the guidelines established by the Committee on Animal Research at the University of California, San Diego. […]
Twenty μg of protein was mixed with Laemmli sample buffer at room temperature for 10 min (samples for anti-O-GlcNAc antibody detection was heated at 70° C. for 10 min) and then loaded onto 4-10% gradient Tris/glycine gels. […] Films were scanned and analyzed by IMAGE-J™ software (NIH).

insulin: Ultralente human insulin (Eli Lilly and Company)
excess O-GlcNAcylation of cellular protein in diabetic hearts: prevented
